Broadly, the IC50 is the concentration that inhibits the measured activity by half.

Structures are written as SMILES. Read-outs that look alike come from different tables or passages of the source.

The target of one data set is T1, PKG (Homo sapiens, UniProt Q13976).
T1 sequence (Q13976 1-671): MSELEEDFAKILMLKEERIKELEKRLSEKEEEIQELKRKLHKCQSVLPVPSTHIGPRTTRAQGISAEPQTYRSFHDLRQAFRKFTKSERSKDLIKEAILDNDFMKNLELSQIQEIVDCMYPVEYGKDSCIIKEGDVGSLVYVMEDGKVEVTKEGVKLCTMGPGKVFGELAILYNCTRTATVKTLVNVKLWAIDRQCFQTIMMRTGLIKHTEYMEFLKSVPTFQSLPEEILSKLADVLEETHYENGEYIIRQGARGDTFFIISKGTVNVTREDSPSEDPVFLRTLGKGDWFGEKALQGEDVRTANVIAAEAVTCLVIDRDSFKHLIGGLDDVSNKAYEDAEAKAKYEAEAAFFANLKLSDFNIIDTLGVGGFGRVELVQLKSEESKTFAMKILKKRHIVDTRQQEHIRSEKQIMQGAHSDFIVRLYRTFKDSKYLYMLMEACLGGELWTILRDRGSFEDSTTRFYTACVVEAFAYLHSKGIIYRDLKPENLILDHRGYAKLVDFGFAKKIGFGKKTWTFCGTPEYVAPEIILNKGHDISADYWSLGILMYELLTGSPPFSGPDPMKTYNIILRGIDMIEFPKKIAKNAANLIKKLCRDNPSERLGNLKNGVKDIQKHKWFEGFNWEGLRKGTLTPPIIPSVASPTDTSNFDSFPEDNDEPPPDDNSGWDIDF
The data set can be described thus: PKG inhibition: transfer of gamma-32P from ATP to peptide substrate. Type of data set: biochemical.

The target in data set [1] is T2, PKA (Homo sapiens, UniProt P17612). Description: PKA inhibition. It is filed as biochemical. Particulars: for difference of IC50 for PKA versus PKG: PKA IC50 relative to PKG IC50.
The subject of data set [2] is CFA-induced thermal hyperalgesia in the hindpaws of rats. Description: CFA-induced thermal hyperalgesia, hindpaw withdrawal latency. Particulars: rat; for Effectiveness: 24 hours after CFA injection. It is filed as in vivo. The protocol:
Both compounds were further tested for their efficacy in reducing complete Freund's adjuvant (CFA)-induced thermal hyperalgesia in the hindpaws of rats. The hindpaws of rats were first tested for their response to a thermal probe as a baseline reference. Then the right hindpaw was injected with CFA (100 μl). The injected site developed edema and redness, indicating an inflammatory reaction, within 12 hours. […] The rats were then given either compound 6 or 46 at different times after CFA injection via different routes as shown in the tables below. Each hindpaw was then tested for its response to a thermal stimulus on successive days.

The subject of data set [3] is rats. Description: Behavioural and motor observation of treated rats. Particulars: rat; eating, sleeping, defecating, micturation, balance, exploring, socialization. Type of data set: in vivo. As for the experimental part:
Modification of compound 6 to increase affinity and selectivity, and perhaps plasma half-life, as described above, will be important. […] For example, the animals had difficulty in changing from the supine to prone positions. […] The effects lasted for at least 24 hours and disappeared after 3 days.

The subject of the next data set is PKC isoforms. Particulars: Series B, Table 2; read-out: IC50 PKC isoforms from literature; cited from earlier work.
Data set [4] has as its target T2, PKA. Particulars: cited from earlier work.
For data set [5], the system named is rats. Particulars: intrathecal, after induction of an inflammatory response, 10 and 60 minutes later; cited from earlier work.
Setting [6] is: Activity: IC50 vrs PKG, Series B, 30 μM ATP.
The mark [7] stands for this setting: Table 4, read-out: PKA inhibition (IC50).

In the case of `COc1ccc(O)c(C(=O)c2ccc(C(=O)OC3CNCC3NC(=O)c3ccc(O)cc3)cc2)c1F` (stereo not shown) [Compound B-7], the IC50 against PKG (setting [6]) was found to be 0.04 µM; against PKG (PKG activity (IC50), Table 1) it was 0.04 µM; at PKG (PKG inhibition (IC50), Table 4), 0.04 µM; at PKA [1] (Series B, Table 2, read-out: Activity: IC50 vrs PKA) it was 0.038 µM; on PKA [1] (Table 1, read-out: PKA activity (IC50)), 0.038 µM; on PKA [1] (setting [7]), 0.04 µM. Further, the “difference of IC50 for PKA versus PKG” value on PKA [1] was “approximately the same IC50”.
On to `O=C(N[C@@H]1CNC[C@H]1NC(=O)c1ccc(O)cc1)c1ccc(O)cc1` [Compound B-48], for which, at PKG, the “PKG inhibitory activity (in words)” value is “moderate PKG inhibitory activity”. For the same compound, the IC50 on PKG (Table 6, read-out: PKG inhibition (IC50)) is about 0.2 µM.
In the case of `COCOc1ccc(OC)c(F)c1C(=O)c1ccc(C(=O)OC2CNCC2NC(=O)c2ccc(O)cc2)cc1` (stereo not shown) [Compound B-6], the IC50 against PKG (setting [6]) was determined as 0.04 µM; on PKG (IC50 with PKG, Example 12), 0.04 µM; against PKG (PKG activity (IC50), Table 1), 0.04 µM; against PKG (PKG inhibition (IC50), Table 4), 0.04 µM; at PKA [1] (Example 12, read-out: IC50 with PKA) it was 0.95 µM; on PKA [1] (setting [7]), 0.95 µM. Besides, the “difference of IC50 for PKA versus PKG” value at PKA [1] was “about 20 fold”. Moreover, the “Effectiveness (recovery)” value in data set [2] (3.3 nmol, subcutaneous pump, 60 hours after CFA injection, 5 days later) is over 90%; in data set [2] (0.25 μM final CSF conc., intrathecal pump, 72 hours after CFA injection, 10 days) it was over 50%. In addition, the Effectiveness is listed as over 90% 6 days in data set [2] (25 μM final CSF conc., intrathecal pump, 6 days later) and “No effect” in data set [2] (82.5 μM final CSF conc., intrathecal single injection). In data set [2] (doses and routes tested, preliminary results), the “analgesic effects (in words)” value is given as “analgesic effects comparable to that achieved with the most potent commercially available inhibitor of PKG”. In data set [2] (single dose injection), the “effect on thermal hyperalgesia” value is on record as “failed to reduce thermal hyperalgesia”. Besides, the adverse behavioral effects result in the data set with rats [3] is “did not exhibit any adverse behavioral effects”.
`O=C(Nc1ccccc1)Nc1ccc(C(=O)O[C@@H]2CCC[C@H]2NC(=O)c2ccc(O)cc2)cc1` (relative stereo) [Series A 11]: the “Activity (ability to inhibit PKG)” value at PKG (Series A, compounds at 10 μM, 30 μM ATP) is given as “no inhibition”.
Take `O=C(NC1CNCC1OC(=O)c1cc(O)c(C(=O)c2c(O)cccc2C(=O)O)c(O)c1)c1ccc(O)cc1` (stereo not shown) [Compound B-2, reference compound]: at PKG, the “reduction of PKG inhibition relative to balanol” value turned out to be 5 fold. Moreover, the IC50 is 0.007 µM against PKG (setting [6]); 0.007 µM on PKG (PKG activity (IC50), Table 1); 0.007 µM against PKG (PKG inhibition (IC50), Table 3); 0.004 to 0.033 µM with PKC isoforms; 0.07 µM at PKA [4] (read-out: IC50 PKA from literature, Series B, Table 2); 0.004 to 0.033 µM at PKA [4] (read-out: PKA activity (IC50), Table 1, from Lai et al. 1997). Besides, the IC50 at PKA [4] (read-out: PKA inhibition (IC50), Table 3, same values given as from literature in Table 2) was 0.07 µM. In addition, at PKA [1], the “difference of IC50 for PKA versus PKG” value is on record as 3 fold.
Regarding `O=C(NC1CNCCCC1OC(=O)c1cc(O)c(C(=O)c2c(O)cccc2C(=O)O)c(O)c1)c1ccc(O)cc1` (stereo not shown) [balanol, reference compound], the IC50 on PKG (Table 3, read-out: PKG inhibition (IC50)) worked out at 0.0016 µM.
In the case of `O=C(NC1CCCC1OC(=O)c1cc(O)c(C(=O)c2c(O)cccc2C(=O)O)c(O)c1)c1ccc(O)cc1` (stereo not shown) [Compound B-1, reference compound], the IC50 at PKG (setting [6]) was 0.007 to 0.008 µM; against PKG (PKG activity (IC50), Table 1), 0.007 to 0.008 µM; on PKG (PKG inhibition (IC50), Table 3) it was 0.007 µM. Also, the “difference of IC50 for PKA versus PKG” value on PKA [1] came to 3 fold.
As for `CCN(CC)CC.Nc1nc2c(nc(Sc3ccc(Cl)cc3)n2[C@@H]2O[C@@H]3COP(O)(=S)O[C@H]3[C@H]2O)c(=O)[nH]1` (stereo partly shown) [Rp-8-[4-chlorophenyl)thio]-cGMPS triethylamine], in the data set on rats [5], the “effect on acute pain” value is listed as “significant attenuation of acute pain”.
Consider `O=C(N[C@@H]1CNC[C@H]1NC(=O)c1ccc2[nH]ncc2c1)c1ccc(O)cc1` [Compound B-50], for which the IC50 at PKG (IC50 (PKG), text b321) was determined as 0.07 µM; on PKA [1] (Table 6, read-out: PKA inhibition (IC50)), 0.07 µM. Moreover, the “selectivity over PKA (in words)” value on PKA [1] (PKG versus PKA) was “no selectivity over PKA”.
On to `O=C(OCc1ccccc1Cl)c1ccc(-c2ccc(O)cc2)cc1` [Compound 8J], for which the “inhibition of PKG activity” value on PKG (10 μM compound, average of two independent experiments) is reported as “weaker inhibition”. Further, the “inhibitory activity on PKG (in words)” value against PKG (1 and 10 micromolar compound (FIGS. 10A-B)) is “significant inhibitory activity”.
With `CCCOc1ccc(OC)c(F)c1C(=O)c1ccc(C(=O)OC2CNCC2NC(=O)c2ccc(O)cc2)cc1` (stereo not shown) [Compound B-21], the IC50 was 0.2 µM on PKG (PKG inhibition (IC50), Table 4) and over 10 µM on PKA [1] (setting [7]).

(Values after US9402826B2, “Neuronal pain pathway modulators” (The Trustees of Columbia University in the City of New York, priority 2006, dated 2016).)
